15 compounds from patent US10759795B2, “Aza-A-ring indenoisoquinoline topoisomerase I poisons” (Purdue Research Foundation, priority 2016, dated 2020) can be followed below.

Where “and” joins values, the source holds several entries; their conditions need not be identical. Equal values may be shown once. Where a name gives a salt, the structure may show the parent alone.

One data set deals with recombinant TDP1 (Homo sapiens, UniProt Q9NUW8). Kind of data set: Recombinant TDP1 assay. It counts as biochemical. Conditions: recombinant TDP1, gel-based; read-out: TDP1: IC50 values for the inhibition of TDP1. How it is done:
A 5′-[^32P]-labeled single-stranded DNA oligonucleotide containing a 3′-phosphotyrosine (N14Y) was incubated at 1 nM with 10 pM recombinant TDP1 in the absence or presence of inhibitor for 15 min at room temperature in the LMP1 assay buffer containing 50 mM Tris HCl, pH 7.5, 80 mM KCl, 2 mM EDTA, 1 mM DTT, 40 μg/mL BSA, and 0.01% Tween-20^18. […] Gels were dried and exposed to a PhosphorImager screen (GE Healthcare). Gel images were scanned using a Typhoon 8600 (GE Healthcare), and densitometry analyses were performed using ImageQuant software (GE Healthcare).
TDP1 is involved in the repair of DNA damage that results from the action of Top1 poisons, which induce the formation of DNA-protein adducts that include a 3′-phosphotyrosyl linkage. The TDP1 inhibition assay assesses a test agent's ability to inhibit the enzyme-induced cleavage of a 5′-^32P, 3′-phosphotyrosyl-DNA oligonucleotide, called N14Y. Cleavage of the phosphodiester bond between the 3′-phosphate and tyrosine releases […] from the DNA oligonucleotide. The enzyme-processed DNA oligonucleotide lacking its 3′-phosphotyrosyl moiety is designated N14P. A schematic representation of the assay and a representative gel are shown in FIG. 2, and the TDP1 screening results are listed in Table 1.

The next data set has as its target T1, recombinant human TDP2 (Homo sapiens, UniProt O95551).
T1 sequence (O95551 1-362): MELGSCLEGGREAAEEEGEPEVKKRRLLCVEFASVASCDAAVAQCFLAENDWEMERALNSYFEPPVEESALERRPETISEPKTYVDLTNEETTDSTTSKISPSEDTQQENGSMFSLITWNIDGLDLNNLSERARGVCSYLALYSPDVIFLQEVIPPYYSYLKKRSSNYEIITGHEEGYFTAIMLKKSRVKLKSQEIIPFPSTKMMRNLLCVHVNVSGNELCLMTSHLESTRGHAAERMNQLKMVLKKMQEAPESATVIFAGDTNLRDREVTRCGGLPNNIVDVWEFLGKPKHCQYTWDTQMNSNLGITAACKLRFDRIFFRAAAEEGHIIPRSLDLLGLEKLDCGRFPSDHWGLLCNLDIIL
In words: Recombinant TDP2 assay. It counts as biochemical. Conditions: recombinant human TDP2, gel-based; read-out: TDP2: IC50 values for the inhibition of TDP2. The text has this:
Reactions were terminated and treated similarly to recombinant TDP1 reactions.
TDP2, as opposed to TDP1, cleaves the phosphotyrosyl linkage in 5′-phosphotyrosyl-DNA oligonucleotides.

The target in a further data set is T2, Top1 (Homo sapiens, UniProt P11387).
T2 sequence (P11387 1-765): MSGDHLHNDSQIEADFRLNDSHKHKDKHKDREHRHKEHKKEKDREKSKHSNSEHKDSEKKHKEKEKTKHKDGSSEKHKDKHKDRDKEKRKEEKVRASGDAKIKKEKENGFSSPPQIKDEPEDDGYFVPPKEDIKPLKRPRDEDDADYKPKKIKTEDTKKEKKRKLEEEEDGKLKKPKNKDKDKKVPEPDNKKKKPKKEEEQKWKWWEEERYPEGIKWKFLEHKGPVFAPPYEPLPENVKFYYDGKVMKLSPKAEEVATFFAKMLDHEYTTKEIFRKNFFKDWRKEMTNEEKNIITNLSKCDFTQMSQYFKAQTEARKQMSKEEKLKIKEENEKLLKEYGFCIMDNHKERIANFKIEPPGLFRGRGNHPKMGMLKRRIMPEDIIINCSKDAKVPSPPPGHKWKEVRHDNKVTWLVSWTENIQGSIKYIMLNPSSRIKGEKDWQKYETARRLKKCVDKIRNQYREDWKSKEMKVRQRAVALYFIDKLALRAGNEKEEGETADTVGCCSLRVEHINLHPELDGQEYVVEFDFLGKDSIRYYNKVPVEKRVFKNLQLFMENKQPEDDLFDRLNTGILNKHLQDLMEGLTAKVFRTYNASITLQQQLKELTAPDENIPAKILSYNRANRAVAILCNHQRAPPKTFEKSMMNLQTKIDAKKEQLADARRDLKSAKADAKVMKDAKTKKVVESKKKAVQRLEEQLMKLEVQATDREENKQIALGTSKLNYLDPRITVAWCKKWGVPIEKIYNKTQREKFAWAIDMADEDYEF
Kind of data set: Top1-mediated DNA cleavage assay. The format is biochemical. Conditions: score based on the activity of 1 μM 1 (camptothecin); tested at 0.1, 1, 10, 100 μM. On the procedure: Approximately 2 nM radiolabeled DNA substrate was incubated with recombinant Top in 20 μL of reaction buffer [10 mM Tris-HCl (pH 7.5), 50 mM KCl, 5 mM MgCl2, 0.1 mM EDTA, and 15 μg/mL BSA] at 25° C. for 20 min in the presence of various concentrations of test compounds. […] Aliquots of each reaction mixture were subjected to 20% denaturing PAGE.
The Top1-mediated DNA cleavage assay was used to measure Top1 inhibitory activity. This assay measures the ability of the compound to stabilize DNA cleavage in a 3′-[^32P]-labeled DNA substrate via Top1 poisoning.

For data set [1], the system named is 60 human cancer cell lines. Kind of data set: NCI-60 single-dose cytotoxicity assay. The format is cell-based. Conditions: mean-graph midpoint of percent growth of 60 human cancer cell lines, 10 μM drug, 48 h, relative to no-drug control and time zero. On the procedure:
The new indenoisoquinolines were evaluated for cancer cell growth inhibitory activities. The National Cancer Institute's NCI-60 cytotoxicity assay measures the ability of test agents to inhibit the growth of approximately 60 different cancer cell lines. In the initial single-dose assay, cells are treated with a 10 μM dose of test agent. The growth of treated cells versus untreated cells is then compared. If a test agent induces a sufficiently low mean growth percent, it is promoted to five-dose testing to determine a mean graph midpoint (MGM) GI50 value. In five-dose testing, cells are treated with test agent concentrations ranging from 10^−8 to 10^−4 M. The concentration required to achieve 50% growth inhibition in a particular cell line is calculated. In situations in which this value is greater than 100 μM or less than 0.01 μM, it is recorded as 100 μM and 0.01 μM, respectively. The values for each of the tested cell lines are averaged to obtain a mean graph midpoint (MGM) GI50 value. MGM GI50 values are often, but not always, determined from two separate rounds (Table 1).

Sequence of recombinant TDP1 (Q9NUW8 whole entry, species assumed): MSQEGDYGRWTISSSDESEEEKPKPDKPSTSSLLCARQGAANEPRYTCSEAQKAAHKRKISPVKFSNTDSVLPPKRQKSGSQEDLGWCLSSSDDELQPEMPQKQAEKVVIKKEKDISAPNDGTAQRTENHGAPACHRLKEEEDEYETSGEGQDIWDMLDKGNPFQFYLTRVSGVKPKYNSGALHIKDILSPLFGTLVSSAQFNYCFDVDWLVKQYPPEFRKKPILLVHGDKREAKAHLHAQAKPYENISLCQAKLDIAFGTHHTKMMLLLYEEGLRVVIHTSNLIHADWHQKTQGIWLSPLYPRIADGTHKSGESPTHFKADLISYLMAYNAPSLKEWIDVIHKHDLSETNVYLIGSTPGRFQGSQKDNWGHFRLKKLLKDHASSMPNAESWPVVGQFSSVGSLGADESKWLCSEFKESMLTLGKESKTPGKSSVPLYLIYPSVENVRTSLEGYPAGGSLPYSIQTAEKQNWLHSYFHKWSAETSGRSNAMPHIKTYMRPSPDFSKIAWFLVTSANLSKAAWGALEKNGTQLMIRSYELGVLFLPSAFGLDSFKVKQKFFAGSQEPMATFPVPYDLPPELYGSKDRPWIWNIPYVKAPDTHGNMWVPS

As for `NCCCn1c2c(c3ccncc3c1=O)C(=O)c1ccccc1-2` (as salt: hydrochloride) [Compound 59, 6-(3-Aminopropyl)-3-aza-5,6-dihydro-5,11-dioxo-indeno[1,2-c]isoquinoline Dihydrochloride], the melting point (in general, the temperature of the solid-liquid transition) lay in the range of 253 to 254 °C.
`O=C1c2ccccc2-c2c1c1cccnc1c(=O)n2CCCN1CCOCC1` [Compound 39, 4-Aza-5,6-dihydro-6-(3-morpholinopropyl)-5,11-dioxo-indeno[1,2-c]isoquinoline] had a melting point of 177 to 178 °C. Besides, the IC50 (in general, the concentration that inhibits the measured activity by half) at recombinant TDP1 was above 111 µM. The IC50 at recombinant human TDP2 is above 111 µM. Further, on Top1, the “Top 1: compound-induced DNA cleavage due to Top1 poisoning” value (shortened to “Top 1: compound-induced DNA cleavage due”) is “+++ (+++, between 75 and 95% activity)”. Moreover, in data set [1], the “Mean Growth %” value is given as 42.9%.
For `NCCCn1c2c(c3cnccc3c1=O)C(=O)c1ccccc1-2` [Compound 58, 6-(3-Aminopropyl)-2-aza-5,6-dihydro-5,11-dioxo-indeno[1,2-c]isoquinoline Dihydrochloride], the IC50 at recombinant TDP1 was 19 µM and 30 µM; at recombinant human TDP2, around 111 µM. The “Top 1: compound-induced DNA cleavage due” value at Top1 was “++ (++, between 50 and 75% activity)”.
Turning to `O=C1c2ccccc2-c2c1c1cccnc1c(=O)n2CCCn1ccnc1` [Compound 43, 4-Aza-5,6-dihydro-6-(3-(1H-imidazol-1-yl)propyl)-5,11-dioxo-indeno[1,2-c]isoquinoline], the melting point lay within 251 to 252 °C. For the same compound, the half-inhibitory concentration (IC50) on recombinant TDP1 was above 111 µM. Besides, on recombinant human TDP2, the half-inhibitory concentration (IC50) is above 111 µM. Also, on Top1, the “Top 1: compound-induced DNA cleavage due” value was “+++ (+++, between 75 and 95% activity)”. Besides, the “Mean Growth %” value in data set [1] is given as 49.6%.
Turning to `NCCCn1c2c(c3ncccc3c1=O)C(=O)c1ccccc1-2` (as salt: hydrochloride) [Compound 57, 6-(3-Aminopropyl)-1-aza-5,6-dihydro-5,11-dioxo-indeno[1,2-c]isoquinoline Dihydrochloride], the melting point was 226 to 228 °C.
Compound `CN(C)CCCn1c2c(c3ncccc3c1=O)C(=O)c1ccccc1-2` [Compound 44, 1-Aza-5,6-dihydro-6-(3-(dimethylamino)propyl)-5,11-dioxo-indeno[1,2-c]isoquinoline] had a melting point of 187 to 188 °C. In addition, the IC50 on recombinant TDP1 is 90 µM. For the same compound, the 50% inhibitory concentration (IC50) on recombinant human TDP2 is above 111 µM. Also, the “Top 1: compound-induced DNA cleavage due” value on Top1 is “++ (++, between 50 and 75% activity)”. Besides, the “Mean Growth %” value in data set [1] was determined as 44.4%.
For the compound `NCCCn1c2c(c3ncccc3c1=O)C(=O)c1ccccc1-2` [Compound 57, 6-(3-Aminopropyl)-1-aza-5,6-dihydro-5,11-dioxo-indeno[1,2-c]isoquinoline Dihydrochloride], the IC50 is 43 µM and 63 µM at recombinant TDP1; above 111 µM on recombinant human TDP2. Moreover, the “Top 1: compound-induced DNA cleavage due” value at Top1 is “++ (++, between 50 and 75% activity)”.
With `O=C1c2ccccc2-c2c1c1ccncc1c(=O)n2C[C@H](O)CO` [Compound 50, (2′S)-3-Aza-5,6-dihydro-6-(2′,3′-dihydroxypropyl)-5,11-dioxo-indeno[1,2-c]isoquinoline], the melting point lay within 237 to 238 °C. The “Top 1: compound-induced DNA cleavage due” value on Top1 is “++ (++, between 50 and 75% activity)”.
`NCCCn1c2c(c3cnccc3c1=O)C(=O)c1ccccc1-2` (as salt: hydrochloride) [Compound 58, 6-(3-Aminopropyl)-2-aza-5,6-dihydro-5,11-dioxo-indeno[1,2-c]isoquinoline Dihydrochloride] showed a melting point of 272 to 274 °C.
`O=C1c2ccccc2-c2c1c1cnccc1c(=O)n2C[C@H](O)CO` [Compound 49, (2′S)-2-Aza-5,6-dihydro-6-(2′,3′-dihydroxypropyl)-5,11-dioxo-indeno[1,2-c]isoquinoline] came in with a melting point of 229 to 232 °C. At recombinant TDP1, the IC50 was above 111 µM. The IC50 on recombinant human TDP2 was above 111 µM. For the same compound, the “Top 1: compound-induced DNA cleavage due” value on Top1 was “+ (+, between 20 and 50%activity)”. Further, in data set [1], the “Mean Growth %” value amounted to 85.5%.
For the compound `O=C1c2ccccc2-c2c1c1ncccc1c(=O)n2CCCN1CCOCC1` [Compound 36, 1-Aza-5,6-dihydro-6-(3-morpholinopropyl)-5,11-dioxo-indeno[1,2-c]isoquinoline], the melting point was in the range of 223 to 224 °C. At recombinant TDP1, the IC50 is above 111 µM. Also, the 50% inhibitory concentration (IC50) at recombinant human TDP2 is above 111 µM. In addition, at Top1, the “Top 1: compound-induced DNA cleavage due” value was “++ (++, between 50 and 75% activity)”. Besides, the “Mean Growth %” value in data set [1] was 87.9%.
In the case of `NCCCn1c2c(c3ccncc3c1=O)C(=O)c1ccccc1-2` [Compound 59, 6-(3-Aminopropyl)-3-aza-5,6-dihydro-5,11-dioxo-indeno[1,2-c]isoquinoline Dihydrochloride], the IC50 was 30 µM and 48 µM at recombinant TDP1; around 111 µM on recombinant human TDP2.
As to `NCCCn1c2c(c3cccnc3c1=O)C(=O)c1ccccc1-2` (as salt: hydrochloride) [Compound 60, 6-(3-Aminopropyl)-4-aza-5,6-dihydro-5,11-dioxo-indeno[1,2-c]isoquinoline Dihydrochloride], the melting point was 284 to 286 °C.
`O=C1c2ccccc2-c2c1c1ccncc1c(=O)n2CCCN1CCOCC1` [Compound 38, 3-Aza-5,6-dihydro-6-(3-morpholinopropyl)-5,11-dioxo-11H-indeno[1,2-c]isoquinoline] had a melting point of 210 to 211 °C. Also, on recombinant TDP1, the half-maximal inhibitory concentration (IC50) is above 111 µM. Besides, the IC50 on recombinant human TDP2 is above 111 µM. At Top1, the “Top 1: compound-induced DNA cleavage due” value was “++ (++, between 50 and 75% activity)”.
Turning to `O=C1c2ccccc2-c2c1c1cnccc1c(=O)n2CCCN1CCOCC1` [Compound 37, 2-Aza-5,6-dihydro-6-(3-morpholinopropyl)-5,11-dioxo-indeno[1,2-c]isoquinoline], the melting point is 218 to 219 °C. Besides, at recombinant TDP1, the IC50 is above 111 µM. Also, the IC50 at recombinant human TDP2 was above 111 µM. Also, on Top1, the “Top 1: compound-induced DNA cleavage due” value is “+++ (+++, between 75 and 95% activity)”.
